Where “and” joins values, the source holds several entries; their conditions need not be identical. Identical values can stand only once.
Assays:
[1] = Cytotoxicity assay; conditions: human, MMTV-βLa HeLa cells, EC50 (95% confidence interval), Cytotoxicity assay (ATP content)
[2] = target: green coffee bean α-galactosidase A (GLA) (Coffea arabica, UniProt Q42656); assay: α-galactosidase; format: biochemical
[3] = HP D300 - with DMSO backfill, 384-well
[4] = HP D300 - without DMSO backfill, 384-well

green coffee bean α-galactosidase A (GLA), sequence (Q42656 16-378): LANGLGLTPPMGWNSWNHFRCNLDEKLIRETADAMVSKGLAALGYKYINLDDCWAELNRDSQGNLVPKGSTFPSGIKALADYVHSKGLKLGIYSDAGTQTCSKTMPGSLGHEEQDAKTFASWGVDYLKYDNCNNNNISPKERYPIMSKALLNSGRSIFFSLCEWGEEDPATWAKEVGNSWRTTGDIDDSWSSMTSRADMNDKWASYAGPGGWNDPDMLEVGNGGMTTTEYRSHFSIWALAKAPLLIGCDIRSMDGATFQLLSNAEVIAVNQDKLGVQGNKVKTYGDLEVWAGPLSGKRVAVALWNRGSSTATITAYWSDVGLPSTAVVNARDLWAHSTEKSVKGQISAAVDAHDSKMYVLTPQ

Row | Compound | EC50 at 72 hr [1, 3] [µM] | EC50 at 72 hr [1, 4] [µM] | EC50 at 72 hr ([1]; Pin tool – 1536-well) [µM] | fold more potent in our assay than previously reported ([2]; versus previously published value, ref [4]) [fold] | EC50 ([2]; EC50 (95% confidence interval), α-galactosidase enzyme assay)
1 | COc1cccc2c1C(=O)c1c(O)c3c(c(O)c1C2=O)C[C@@](O)(C(C)=O)C[C@@H]3O[C@H]1C[C@H](N)[C@H](O)[C@H](C)O1 [Daunorubicin] | 0.189 | 0.252 | 0.38 | – | –
2 | CC/C(=C(\c1ccccc1)c1ccc(OCCN(C)C)cc1)c1ccccc1 [Tamoxifen, tamoxifen] | 8.77 | 9 | 32.1 | – | –
3 | CC(=O)[O][Hg][c]1ccccc1 [PMA, phenylmercuric acetate] | – | – | – | > 50 | –
4 | Cc1c(OCC(F)(F)F)ccnc1C[S+]([O-])c1nc2ccccc2[nH]1 (centres unmarked) [Lansoprazole, lansoprazole] | – | – | – | – | 12 µM and 11.5 µM and 8.95 µM
